Experimental data from patent publication US4490363A, “Metorphamide--a novel morphine-like peptide” (Board of Trustees of The Leland Stanford Junior University …, priority 1983, dated 1984).
Read-outs that look alike come from different tables or passages of the source. Peptide text beside a SMILES is read from it.

Key:
[1] = test system: δ-site; format: binding, guinea pig; settings: for Ki: guinea-pig brain homogenates, 150 minutes at 0° C., mean ±SEM, read-out: KI, [3H]-[DAla2,D-Leu5]enkephalin (δ-site)
Method: (§1) [^3 H]-[D-Ala^2,MePhe^4, Gly-ol^5 ]enkephalin (1 nM) was used as μ-ligand, [^3 H]-[D-Ala^2,D-Leu^5 ]enkephalin (1 nM) as a relatively selective δ-ligand and [^3 H]-(-)-bremazocine (0.3 nM) as κ-ligand, in the presence of 100 nM each of unlabelled [D-Ala^2,MePhe^4,Gly-ol^5 ]enkephalin and [D-Ala^2,D-Leu^5 ]enkephalin for the suppression of μ- and δ-binding.
(§2) The μ- and […] of [^3 H]-(-)-bremazocine was suppressed with 100 nM each of unlabelled [D-Ala^2,MePhe^4,Gly-ol^5 ]enkephalin and [D-Ala^2,D-Leu^5 ]enkephalin.

[2] = biological target: T1, κ-site (Cavia porcellus, UniProt P41144); experiment: Binding assay in guinea pig brain homogenates, [3H]-(-)-bremazocine after suppression of μ- and δ-binding
T1 construct: The assays used homogenates of guinea-pig brain; from tissue; host or cells: guinea pig brain homogenate
Method: as §1, §2

[3] = test system: Rat vas deferens; experiment: Opioid bioassay, rat vas deferens; format: cell-based; settings: peptidases inhibited by bestatin (30 μM), L-leucyl-L-leucine, thiorphan, captopril
Method: (§3) Bioassays were performed using preparations of the myenteric plexus-longitudinal muscle of the guinea pig and the vasa deferentia of the mouse, rabbit and rat. According to the procedures described by McKnight et al., Eur. J. Pharmacol., 86, 393-402 (1983) and Corbett et al., Nature, 299, 79-81 (1982). The drugs were prepared as 1 mg/ml stock solutions in water and dilutions were made in Krebs solution. The bioassays were performed on [Met 5] enkephalin and C-terminally extended Met 5 enkephalins, and compared with metorphamide.
(§4) The values shown are the mean±SEM of 4 observations and of 6 for [Met^5 ]enkephalyl-Arg-Arg-Val-Gly. The activity of the peptidases was inhibited by bestatin (10 μM, or 30 μM in the rat and rabbit), L-leucyl-L-leucine ([…]), thiorphan (0.3 μM) and captopril (10 μM).

[4] = test system: myenteric plexus-longitudinal muscle of the guinea pig; experiment: Opioid bioassay, guinea-pig myenteric plexus-longitudinal muscle; format: cell-based; settings: mean±SEM; peptidases inhibited by bestatin, L-leucyl-L-leucine, thiorphan, captopril
Method: as §3, §4

[5] = test system: Rabbit vas deferens; experiment: Opioid bioassay, rabbit vas deferens; format: cell-based; settings: mean±SEM; peptidases inhibited by bestatin (30 μM), L-leucyl-L-leucine, thiorphan, captopril
Method: as §3, §4

[6] = test system: Mouse vas deferens; experiment: Opioid bioassay, mouse vas deferens; format: cell-based; settings: mean±SEM; peptidases inhibited by bestatin, L-leucyl-L-leucine, thiorphan, captopril
Method: as §3, §4

[7] = test system: μ-site; experiment: Binding assay in guinea pig brain homogenates, μ-ligand [3H]-[D-Ala2,MePhe4,Gly-ol5]enkephalin; settings: for Ki: guinea-pig brain homogenates, 150 minutes at 0° C., mean ±SEM, read-out: KI, [3H]-[DAla2,MePhe4,Gly-ol5]enkephalin (μ-site)
Method: as §1, §2

[8] = biological target: T2, carboxypeptidase A (Bos taurus, UniProt P00730); experiment: Carboxypeptidase A digestion of bovine metorphamide and dynorphin; format: in vitro ADME; settings: 400 ng enzyme, 37° C., pH 7.5
T2 construct: purchased Sigma (printed as σ) type 1-DFP
T2 sequence (P00730 111-419): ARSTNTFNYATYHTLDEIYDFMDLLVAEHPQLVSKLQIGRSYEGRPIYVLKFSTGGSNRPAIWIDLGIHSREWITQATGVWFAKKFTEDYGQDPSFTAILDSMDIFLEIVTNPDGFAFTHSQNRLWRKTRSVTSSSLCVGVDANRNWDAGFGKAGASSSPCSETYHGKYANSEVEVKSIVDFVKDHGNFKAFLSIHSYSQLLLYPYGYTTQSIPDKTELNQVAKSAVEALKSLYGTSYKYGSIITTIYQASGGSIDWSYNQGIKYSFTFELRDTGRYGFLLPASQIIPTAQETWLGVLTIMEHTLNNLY
Method: A mixture of bovine metorphamide (30-35 pmol.) and synthetic dynorphin (60-70 pmol.) was dissolved in 1.6 ml. 0.02 m Tris buffer, containing 0.2 m NaCl and 0.1% Triton X-100, pH 7.5. 5 μl of a 20 mg/ml suspension of carboxypeptidase A (σ, type 1-DFP) containing 100 μg enzyme were dissolved in 1 ml. 10% LiCl. […] aliquots were withdrawn at times 1, 5, 10 and 60 minutes an equal volume of glacial acetic acid was added to each sample to terminate the enzyme reaction. After evaporation, the samples were assayed in triplicate by radioaminoassay for dynorphin and metorphamide. 0 time samples were withdrawn before enzyme was added to determine the amounts of peptides that were initially present in the incubation mixture. A separate sample of peptide mixture that received 4 μl of 10% LiCl without the enzyme was incubated at 37° C. for 60 minutes and 50 μl aliquots of this sample were also assayed for metorphamide and dynorphin. This latter sample served as a control for any non-specific degradation of peptide that may have occurred by unknown factors. […] The results of the digestion are shown in FIG. 2 wherein the metorphamide is indicated by O--O and dynorphin by X--X. Bovine metorphamide was stable to carboxypeptidase A digestion for at least 60 minutes while dynorphin was completely digested by the enzyme after 5 minutes.

[9] = test system: Rat vas deferens; settings: values marked ** (from literature); cited from earlier work
[10] = test system: myenteric plexus-longitudinal muscle of the guinea pig; settings: values marked ** (from literature); cited from earlier work
[11] = test system: Mouse vas deferens; settings: values marked ** (from literature); cited from earlier work
[12] = test system: anti-serum (R1-3) to synthetic metorphamide; experiment: Radioaminoassay of metorphamide: cross-reaction with anti-serum R1-3, 125I-labeled synthetic metorphamide as tracer; format: binding, rabbit; settings: on a molar basis
From the text: An anti-serum to synthetic metorphamide was generated in male New Zealand white rabbits by injecting synthetic peptide linked to bovine thyroglobulin by carbodiimide according the method of Weber et al., J. Neurochem., 38, 436-447 (1982). The resulting anti-serum (R1-3) was used in a radioaminoassay using ^125 I labeled synthetic metorphamide as a tracer. The procedure used was as described by Weber et al. with modifications described by Weber et al., Nature, 299, 77-79 (1982). The metorphamide or radioaminoassay requires the carboxylterminal amide group as part of the recognition site. On a molar basis the free carboxy derivative of metorphamide cross reacts with less than 1.02% and the analog of metorphamide in which the carboxyterminal amide was substituted by a Glycine residue cross reacts at less than 0.3%. The adrenal medulla opioid peptides Bam-22 and Bam-12 (Mizuno et al., Biochem. Biophys. Res. Commun., 95, 1482-1488 (1980); Mizuno et al., Biochem. Biophys. Res. Commun., 97, 1283-1290 (1980)) which are carboxyterminal extensions of metorphamide both cross react less than 0.006% in the radioaminoassay.

[13] = at KD concentrations of the tritiated ligands, total binding=1

T1 sequence (P41144 whole entry): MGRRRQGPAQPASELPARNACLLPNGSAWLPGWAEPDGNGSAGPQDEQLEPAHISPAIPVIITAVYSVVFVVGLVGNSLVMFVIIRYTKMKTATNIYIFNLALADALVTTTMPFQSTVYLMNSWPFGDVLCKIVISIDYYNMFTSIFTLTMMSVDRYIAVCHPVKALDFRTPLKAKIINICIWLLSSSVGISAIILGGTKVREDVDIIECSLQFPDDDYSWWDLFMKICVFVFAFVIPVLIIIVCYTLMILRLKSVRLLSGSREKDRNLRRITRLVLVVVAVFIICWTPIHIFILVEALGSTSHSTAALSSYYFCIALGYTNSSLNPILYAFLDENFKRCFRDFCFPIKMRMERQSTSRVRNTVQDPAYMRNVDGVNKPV

| SMILES | Ki [1] [nM] | IC50 [3] [nM] | IC50 [4] [nM] | IC50 [5] [nM] | IC50 [6] [nM] | Ki [7] [nM] | Ki [2] [nM] | also measured |
| --- | --- | --- | --- | --- | --- | --- | --- | --- |
| CSCC[C@H](NC(=O)[C@H](Cc1ccccc1)NC(=O)CNC(=O)CNC(=O)[C@@H](N)Cc1ccc(O)cc1)C(=O)N[C@@H](CCCNC(=N)N)C(=O)N[C@@H](CCCNC(=N)N)C(=O)N[C@H](C(N)=O)C(C)C [F] | 2.65 ± 0.23 | > 3000 | 2.46 ± 0.34 | 41.2 ± 4.9 | 6.2 ± 1.1 | 0.115 ± 0.019 | – | relative potency (relative affinity) at the δ-site [1, 13]: 0.03; relative potency (relative affinity) at the κ-site [2, 13]: 0.31; relative potency (relative affinity) at the μ-site [7, 13]: 0.66; activity for the μ-binding site relative to that of morphine ([7]; ratio of relative affinities): approximately 2/3; time stable to carboxypeptidase A digestion [8]: at least 60 minutes |
| CC[C@H](C)[C@H](NC(=O)[C@H](CCCNC(=N)N)NC(=O)[C@H](CCCNC(=N)N)NC(=O)[C@H](CC(C)C)NC(=O)[C@H](Cc1ccccc1)NC(=O)CNC(=O)CNC(=O)[C@@H](N)Cc1ccc(O)cc1)C(=O)N[C@@H](CCCNC(=N)N)C(=O)N1CCC[C@H]1C(=O)N[C@@H](CCCCN)C(=O)N[C@@H](CC(C)C)C(=O)N[C@@H](CCCCN)C(=O)N[C@@H](Cc1c[nH]c2ccccc12)C(=O)N[C@@H](CC(=O)O)C(=O)N[C@@H](CC(N)=O)C(=O)N[C@@H](CCC(N)=O)C(=O)O [dynorphin] | – | – | – | – | – | – | – | time after which completely digested by carboxypeptidase A [8]: 5 min |
| CSCC[C@H](NC(=O)[C@H](Cc1ccccc1)NC(=O)CNC(=O)CNC(=O)[C@@H](N)Cc1ccc(O)cc1)C(=O)N[C@@H](CCCNC(=N)N)C(=O)N[C@@H](CCCNC(=N)N)C(=O)O [C, [Met^5]enkephalylArg-Arg] | – | – | – | – | – | – | 11.2 ± 1.8 | – |
| CSCC[C@H](NC(=O)[C@H](Cc1ccccc1)NC(=O)CNC(=O)CNC(=O)[C@@H](N)Cc1ccc(O)cc1)C(=O)O [A, [Met^5]enkephalin] | 0.91 ± 0.07 | – | – | > 10000 | – | 9.5 ± 0.54 | – | IC50 [9]: 260 nM; IC50 [10]: 6.7 nM; IC50 [11]: 1.45 nM |
| CSCC[C@H](NC(=O)[C@H](Cc1ccccc1)NC(=O)CNC(=O)CNC(=O)[C@@H](N)Cc1ccc(O)cc1)C(=O)N[C@@H](CCCNC(=N)N)C(=O)N[C@@H](CCCNC(=N)N)C(=O)N[C@H](C(=O)O)C(C)C [D, [Met^5 ]enkephalylArg-Arg-Val] | – | – | – | – | – | – | 2.11 ± 0.29 | – |
| CSCC[C@H](NC(=O)[C@H](Cc1ccccc1)NC(=O)CNC(=O)CNC(=O)[C@@H](N)Cc1ccc(O)cc1)C(=O)N[C@@H](CCCNC(=N)N)C(=O)N[C@@H](CCCNC(=N)N)C(=O)N[C@H](C(=O)NCC(=O)O)C(C)C [E] (H-YGGFMRRVG-OH; N-terminus and C-terminus assumed) | 8.58 ± 1.54 | > 3000 | 6.62 ± 0.8 | 54.7 ± 11 | 21.4 ± 3.1 | 1.39 ± 0.23 | – | cross reaction in the metorphamide radioaminoassay [12]: less than 0.3% |
